In US20210188843A1, “QUINOLINE COMPOUNDS AND THEIR PREPARATION AND USE AS ANTIMALARIAL AGENTS” (The United States of America,as represented by the …, priority 2018, published 2021):
Values after ≈ are worked out from the molar mass of the structure shown.

Columns and labels:
[1] = test system: Asexual parasites of P. falciparum strain 3D7; assay: In vitro drug activity on asexual parasites (SYBR Green assay); format: cell-based; details: Plasmodium falciparum; Table 1; P. falciparum 3D7 asexual stage, 72 h; read-out: Asexual EC50
Procedure: Cell culture. Asexual parasites of P. falciparum strain 3D7 were cultured as described previously [Trager W, et al., Journal of Parasitology 2005, 91: 484-486]. Stage III-V gametocytes were selected and enriched with 3-day treatment with 50 mM N-acetylglucosamine (NAG) and the following Percoll density gradient centrifugation after gametocyte production [Tanaka T Q, et al., Molecular and Biochemical Parasitology, 2011, 177: 160-163]. Gametocytes of HB3 and Dd2 strains were produced and then set up for assay in a similar process. HepG2 cells (ATCC, cat. no. 77400) were cultured in 175-cm^2 tissue culture flasks with 30 ml growth medium at 37° C. in a 5% CO2 humidified atmosphere. Growth medium was made with Dulbecco's Modified Eagle Medium with 10% fetal bovine serum (FBS). Growth medium was replaced every other day and cells were passed at 75% confluence.
Asexual parasites of P. falciparum strain 3D7 were cultured as described previously (Trager, W. et al., J. Parasitol. 2005, 91(3): 484-486). Drug activity on asexual stage parasites was tested using a SYBR Green assay as described previously (Eastman, R. T. et al., Antimicrob. Agents Chemother. 2013, 57(1): 425-435; Smilkstein, M. et al., Antimicrob. Agents Chemother. 2004, 48(5): 1803-1806). Briefly, parasites were diluted to 0.5% parasitemia in complete culture medium with 2% hematocrit and drugs diluted in DMSO (<0.5%) and were loaded into a 96-well plate (200 μl/well). No drug and RBC alone wells were included as positive and background controls, respectively, and each testing condition was examined in duplicated. After 72 h incubation under the standard culture condition and a freeze-thaw lysis step at −80° C. and room temperature, 100 μl/well of lysis buffer containing SYBR Green I was added to the parasite culture and incubated for 30 min at room temperature. The fluorescence of each well was measured at 520 nm following excitation at 490 nm using a FLUOstar Optima™ microplate reader (BMG Labtech).
Compounds were screened against gametocytes and asexual parasites as described in Examples 1 and 2.

[2] = Microsomal stability (rat); format: in vitro ADME; details: rat microsomes, Table 1, read-out: Microsomal Stability (rat) T1/2
[3] = Solubility pH 7.4; format: physicochemical; details: aqueous buffer, Table 1

EC50 [1] [nM] | half-life [2] [min] | solubility [3] [µg/mL] | SMILES
2520 | > 30 | > 47 | Cn1c(=N)n(C2CCN(C3CCOCC3)CC2)c2c3cc(-c4ccc(Cl)cc4)ccc3ncc21 [Compound 57, 8-(4-chlorophenyl)-3-methyl-1-(1-(tetrahydro-2H-pyran-4-yl)piperidin-4-yl)-1,3-dihydro-2H-imidazo[4,5-c]quinolin-2-imine]
13200 | > 30 | > 47 | Cn1c(=N)n([C@H]2CC[C@@H](N3CCOCC3)CC2)c2c3cc(-c4ccc(Cl)cc4)ccc3ncc21 [Compound 59, 8-(4-chlorophenyl)-3-methyl-1-((1s,4s)-4-morpholinocyclohexyl)-1,3-dihydro-2H-imidazo[4,5-c]quinolin-2-imine]
1720 | 10 | 19.2 (≈ 47.6 µM) | Cc1ccccc1-c1ccc2ncc3c(c2c1)n(-c1cc(C#N)ccc1C)c(=N)n3C [Compound 61, 3-(2-imino-3-methyl-8-(o-tolyl)-2,3-dihydro-1H-imidazo[4,5-c]quinolin-1-yl)-4-methylbenzonitrile]
704 | 18.5 | 7.8 (≈ 18.4 µM) | Cc1ccc(C#N)cc1-n1c(=N)n(C)c2cnc3ccc(-c4ccccc4Cl)cc3c21 [Compound 62, 3-(8-(2-chlorophenyl)-2-imino-3-methyl-2,3-dihydro-1H-imidazo[4,5-c]quinolin-1-yl)-4-methylbenzonitrile]
1040 | > 30 | 5.7 (≈ 14.8 µM) | Cn1c(=N)n(-c2ccccc2)c2c3cc(-c4ccc(Cl)cc4)ccc3ncc21 [Compound 63, 8-(4-chlorophenyl)-3-methyl-1-phenyl-1,3-dihydro-2H-imidazo[4,5-c]quinolin-2-imine]
1300 | > 30 | 20.8 (≈ 50.1 µM) | COc1cccc(-n2c(=N)n(C)c3cnc4ccc(-c5ccc(Cl)cc5)cc4c32)c1 [Compound 64, 8-(4-chlorophenyl)-1-(3-methoxyphenyl)-3-methyl-1,3-dihydro-2H-imidazo[4,5-c]quinolin-2-imine]
382 | > 30 | 4 (≈ 10 µM) | Cc1cccc(-n2c(=N)n(C)c3cnc4ccc(-c5ccc(Cl)cc5)cc4c32)c1 [Compound 66, 8-(4-chlorophenyl)-3-methyl-1-(m-tolyl)-1,3-dihydro-2H-imidazo[4,5-c]quinolin-2-imine]
207 | > 30 | < 1 | Cc1c(C#N)cccc1-n1c(=N)n(C)c2cnc3ccc(-c4ccc(Cl)cc4)cc3c21 [Compound 69, 3-(8-(4-chlorophenyl)-2-imino-3-methyl-2,3-dihydro-1H-imidazo[4,5-c]quinolin-1-yl)-2-methylbenzonitrile]
443 | > 30 | < 1 | Cc1ccc(-n2c(=N)n(C)c3cnc4ccc(-c5ccc(Cl)cc5)cc4c32)cc1C#N [Compound 70, 5-(8-(4-chlorophenyl)-2-imino-3-methyl-2,3-dihydro-1H-imidazo[4,5-c]quinolin-1-yl)-2-methylbenzonitrile]
511 | > 30 | < 1 | Cc1cc(C#N)cc(-n2c(=N)n(C)c3cnc4ccc(-c5ccc(Cl)cc5)cc4c32)c1 [Compound 71, 3-(8-(4-chlorophenyl)-2-imino-3-methyl-2,3-dihydro-1H-imidazo[4,5-c]quinolin-1-yl)-5-methylbenzonitrile]
258 | > 30 | < 1 | Cn1c(=N)n(-c2ccc(N3CCNCC3)c(C(F)(F)F)c2)c2c3cc(-c4ccc(Cl)cc4)ccc3ncc21 [Compound 72, 8-(4-chlorophenyl)-3-methyl-1-(4-(piperazin-1-yl)-3-(trifluoromethyl)phenyl)-1,3-dihydro-2H-imidazo[4,5-c]quinolin-2-imine]
445 | > 30 | > 42 | CC(=O)c1cccc(-n2c(=N)n(C)c3cnc4ccc(-c5ccc(Cl)cc5)cc4c32)c1 [Compound 74, 1-(3-(8-(4-chlorophenyl)-2-imino-3-methyl-2,3-dihydro-1H-imidazo[4,5-c]quinolin-1-yl)phenyl)ethan-1-one]
1020 | > 30 | 11.7 (≈ 25.3 µM) | Cn1c(=N)n(-c2cccc(S(C)(=O)=O)c2)c2c3cc(-c4ccc(Cl)cc4)ccc3ncc21 [Compound 75, 8-(4-chlorophenyl)-3-methyl-1-(3-(methylsulfonyl)phenyl)-1,3-dihydro-2H-imidazo[4,5-c]quinolin-2-imine]
1400 | > 30 | 6.2 (≈ 13.4 µM) | Cn1c(=N)n(-c2cccc(S(N)(=O)=O)c2)c2c3cc(-c4ccc(Cl)cc4)ccc3ncc21 [Compound 77, 3-(8-(4-chlorophenyl)-2-imino-3-methyl-2,3-dihydro-1H-imidazo[4,5-c]quinolin-1-yl)benzenesulfonamide]
955 | > 30 | 12.4 (≈ 30.8 µM) | Cn1c(=N)n(-c2ccccc2F)c2c3cc(-c4ccc(Cl)cc4)ccc3ncc21 [Compound 80, 8-(4-chlorophenyl)-1-(2-fluorophenyl)-3-methyl-1,3-dihydro-2H-imidazo[4,5-c]quinolin-2-imine]
1640 | > 30 | > 39 | Cc1ccccc1-n1c(=N)n(C)c2cnc3ccc(-c4ccc(Cl)cc4)cc3c21 [Compound 81, 8-(4-chlorophenyl)-3-methyl-1-(o-tolyl)-1,3-dihydro-2H-imidazo[4,5-c]quinolin-2-imine]
1670 | > 30 | > 41 | COc1ccccc1-n1c(=N)n(C)c2cnc3ccc(-c4ccc(Cl)cc4)cc3c21 [Compound 82, 8-(4-chlorophenyl)-1-(2-methoxyphenyl)-3-methyl-1,3-dihydro-2H-imidazo[4,5-c]quinolin-2-imine]
658 | > 30 | < 1 | COc1ccc(-n2c(=N)n(C)c3cnc4ccc(-c5ccc(Cl)cc5)cc4c32)cc1C#N [Compound 84, 5-(8-(4-chlorophenyl)-2-imino-3-methyl-2,3-dihydro-1H-imidazo[4,5-c]quinolin-1-yl)-2-methoxybenzonitrile]
601 | 6.2 | < 1 | CCCCOC(=O)/N=c1\n(C)c2cnc3ccc(-c4ccc(Cl)cc4)cc3c2n1-c1cc(C#N)ccc1C [Compound 89, butyl (E)-(8-(4-chlorophenyl)-1-(5-cyano-2-methylphenyl)-3-methyl-1,3-dihydro-2H-imidazo[4,5-c]quinolin-2-ylidene)carbamate]
813 | > 30 | 13.6 (≈ 31.1 µM) | CCn1c(=N)n(-c2cc(C#N)ccc2C)c2c3cc(-c4ccc(Cl)cc4)ccc3ncc21 [Compound 93, 3-(8-(4-chlorophenyl)-3-ethyl-2-imino-2,3-dihydro-1H-imidazo[4,5-c]quinolin-1-yl)-4-methylbenzonitrile]
9170 | > 30 | < 1 | Cc1ccc(C#N)cc1-n1c(=N)n(Cc2ccccc2)c2cnc3ccc(-c4ccc(Cl)cc4)cc3c21 [Compound 94, 3-(3-benzyl-8-(4-chlorophenyl)-2-imino-2,3-dihydro-1H-imidazo[4,5-c]quinolin-1-yl)-4-methylbenzonitrile]
2580 | > 30 | 27.4 (≈ 60.4 µM) | Cc1ccc(C#N)cc1-n1c(=N)n(CCO)c2cnc3ccc(-c4ccc(Cl)cc4)cc3c21 [Compound 95, 3-(8-(4-chlorophenyl)-3-(2-hydroxyethyl)-2-imino-2,3-dihydro-1H-imidazo[4,5-c]quinolin-1-yl)-4-methylbenzonitrile]
2630 | > 30 | > 47 | Cn1c(=N)n([C@H]2CC[C@H](N3CCNCC3)CC2)c2c3cc(-c4ccc(Cl)cc4)ccc3ncc21 [Compound 96, 8-(4-chlorophenyl)-3-methyl-1-((1r,4r)-4-(piperazin-1-yl)cyclohexyl)-1,3-dihydro-2H-imidazo[4,5-c]quinolin-2-imine]
5100 | > 30 | > 47 | Cn1c(=N)n(C2CCN(C3CCNCC3)CC2)c2c3cc(-c4ccc(Cl)cc4)ccc3ncc21 [Compound 97, 1-([1,4′-bipiperidin]-4-yl)-8-(4-chlorophenyl)-3-methyl-1,3-dihydro-2H-imidazo[4,5-c]quinolin-2-imine]
2550 | > 30 | > 44 | Cn1c(=N)n(C2CC(N3CCNCC3)C2)c2c3cc(-c4ccc(Cl)cc4)ccc3ncc21 (stereo not drawn) [Compound 98, 8-(4-chlorophenyl)-3-methyl-1-(3-(piperazin-1-yl)cyclobutyl)-1,3-dihydro-2H-imidazo[4,5-c]quinolin-2-imine]
